Measured values from patent US20250339567A1, “COMPOUNDS WITH IMPROVED PHARMACOKINETICS FOR IMAGING AND THERAPY OF CANCER” (priority 2019, published 2025).
Read-outs that look alike come from different tables or passages of the source.

Columns and labels:
[1] = system: PC-3 tumor-bearing CB17-SCID mice; conditions: mouse, in vivo
Procedure: (§1) All animal experiments were conducted in accordance with general animal welfare regulations in Germany (German animal protection act, as amended on 18 May 2018, Art. 141 G v. 29.3.2017 | 626, approval no. ROB-55.2-2532.Vet_02-18-109) and the institutional guidelines for the care and use of animals. To establish tumor xenografts, PC-3 cells (5×10^6 cells per 200 μL) were suspended in a 1:1 mixture (v/v) of Dulbecco's modified eagle's medium/Ham's F-12 (DMEM/F-12) with Glutamax-I (1:1) and Cultrex® Basement Membrane Matrix Type 3 (Trevigen Inc., Gaithersburg, MD, USA) and inoculated subcutaneously onto the right shoulder of 6-10 weeks old female CB17-SCID mice (Charles River Laboratories International Inc., Sulzfeld, Germany). Mice were used for experiments when tumor volume was 125-500 mm^3 (2-3 weeks after inoculation).
Imaging studies were performed at a MILabs VECTor^4 small-animal SPECT/PET/OI/CT device (MILabs, Utrecht, the Netherlands). Data were reconstructed using the MILabs Rec software (version 10.02) and a pixel-based Similarity-Regulated Ordered Subsets Expectation Maximization (SROSEM) algorithm, followed by data analysis using the PMOD4.0 software (PMOD TECHNOLOGIES LLC, Zurich, Switzerland). […] Static images were recorded within 1 and 28 h p.i. with an acquisition time of 45-60 min using the HE-GP-RM collimator and a step-wise multi-planar bed movement.

[2] = Plasma studies: metabolic stability in vitro in human plasma (radio RP-HPLC); format: in vitro ADME
Outline: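 Radiotracer incubated in human or murine plasma at 37° C. immediately after labeling, for 72±2 h or 6±0.5 h. Proteins precipitated with ice-cold EtOH and MeCN and centrifuged. Supernatant analysed by radio RP-HPLC.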

[3] = n-Octanol-PBS distribution coefficient, log D7.4; format: physicochemical; conditions: 177Lu-labeled ligand; n-octanol/PBS pH 7.4
Procedure: Approximately 1 MBq of the labeled tracer was dissolved in 1 mL of a 1:1 mixture (v/v) of phosphate buffered saline (PBS, pH=7.4) and n-octanol in an Eppendorf tube. After vigorous mixing of the suspension for 3 min at room temperature, the vial was centrifuged at 9000 rpm for 5 min (Biofuge 15, Heraus Sepatech, Osterode, Germany) and 200 μL aliquots of both layers were measured in a γ-counter. The experiment was repeated at least four times.

[4] = system: PC-3 cells; assay: Internalization into PC-3 cells; format: cell-based; conditions: c = 1 nM, 1 h, 37° C., corrected for non-specific binding (10^-3 M [natLu]RM2)
Procedure: For internalization studies, PC-3 cells are harvested 24±2 h before the experiment and seeded in 24-well plates (1.5×10^5 cells/well, 1 mL). Subsequent to the removal of the culture medium, the cells are washed once with 500 μL DMEM/F-12 (5% BSA) and left to equilibrate at 37° C. for at least 15 min in 200 μL DMEM/F-12 (5% BSA). […] Next, 25 μL of the ^125I/^177Lu-labeled GRPR ligand (10 nm) is added and the cells are incubated at 37° C. for 60 min.
The experiment is terminated by placing the 24-well plate on ice for 1 min and consecutive removal of the medium. Each well is rinsed with 300 μL ice-cold PBS and the fractions from these first two steps are combined, representing the amount of free radiolabeled reference. Removal of surface bound activity is accomplished by incubation of the cells with 300 μL of ice-cold Acid Wash solution (0.02 M NaOAc, pH=5.0) for 10 min at room temperature and rinsed again with 300 μL of ice-cold PBS. The internalized activity is determined by incubation of the cells in […] NaOH (1 M) and the combination with the fraction of a subsequent washing step with 300 μL NaOH (1 M).
Each experiment (control and blockade) is performed sixfold. Free, surface bound and internalized activity is quantified in a γ-counter. Data is corrected for non-specific internalization.

[5] = system: PC-3 tumor-bearing CB17-SCID mice; assay: Biodistribution in PC-3 tumor-bearing CB17-SCID mice; format: in vivo; conditions: 177Lu-labeled, 24 h p.i.
Procedure: as §1
Approximately 1-5 MBq ([…]) of the radiolabeled GRPR antagonists were injected into the tail vein of PC-3 tumor-bearing mice and sacrificed at 1, 4 or 24 h p.i. (n=4). Selected organs were removed, weighted and measured in a γ-counter (Perkin Elmer, Waltham, MA, USA).

[6] = target: T1, GRPR (Homo sapiens, UniProt P30550); assay: Determination of GRPR affinity (IC50), competition with [D-3-[125I]I-Tyr6]MJ9 on PC-3 cells; format: binding
T1 construct: endogenous in cells; host or cells: PC-3 cells
T1 sequence (P30550 whole entry): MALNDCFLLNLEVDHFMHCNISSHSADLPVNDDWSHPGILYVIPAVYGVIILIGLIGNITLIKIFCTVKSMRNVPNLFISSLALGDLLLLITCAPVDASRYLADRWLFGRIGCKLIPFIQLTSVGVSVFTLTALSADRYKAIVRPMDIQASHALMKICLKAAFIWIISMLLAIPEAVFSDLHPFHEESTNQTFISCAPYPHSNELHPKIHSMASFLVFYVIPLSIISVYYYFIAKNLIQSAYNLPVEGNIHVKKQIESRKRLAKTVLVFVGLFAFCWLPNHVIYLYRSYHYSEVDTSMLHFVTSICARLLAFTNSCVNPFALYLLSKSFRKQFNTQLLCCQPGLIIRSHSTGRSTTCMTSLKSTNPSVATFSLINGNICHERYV

CC(C)C[C@H](NC(=O)C[C@H](O)[C@H](CC(C)C)NC(=O)[C@H](Cc1c[nH]cn1)NC(=O)CNC(=O)[C@@H](NC(=O)[C@H](C)NC(=O)[C@](C)(Cc1c[nH]c2ccccc12)NC(=O)[C@H](CCC(N)=O)NC(=O)[C@@H](Cc1ccccc1)NC(=O)CN1CCC(NC(=O)CN2CCN(CC(=O)O)CCN(CC(=O)O)CCN(CC(=O)O)CC2)CC1)C(C)C)C(N)=O [AMTG]
clearance of background activity in imaging [1]: cleared less rapid | Amount of intact tracer after incubation in human plasma for 72 ± 2 h (n = 2) [2]: 77.6 ± 10.1 | metabolite, first-eluting peak in chromatogram [2]: 2% | metabolite, second peak in chromatogram [2]: 5% | remaining intact tracer in chromatogram ([2]; human, plasma, 2 h): 92% | log D7.4 ± SD (n = 8) [3]: −2.28 ± 0.06

CC(C)CC(CC(C)C)NC(=O)[C@H](Cc1cnc[nH]1)NC(=O)CNC(=O)[C@@H](NC(=O)[C@H](C)NC(=O)[C@H](Cc1c[nH]c2ccccc12)NC(=O)[C@H](CCC(N)=O)NC(=O)[C@@H](Cc1ccccc1)NC(=O)COCC(=O)Nc1ccc(CNC(=O)CN2CCN(CC(=O)O)CCN(CC(=O)O)CCN(CC(=O)O)CC2)cc1)C(C)C [NeoBOMB1, reference compound]
Specific internalization (mean ± SD, n = 6) [4]: 13.91 ± 0.64 % of the used activity | Amount of intact tracer after incubation in human plasma for 72 ± 2 h (n = 2) ([2]; Table 1C, 177Lu-labeled, 37° C., 72 ± 2 h, in % (unit assumed)): 60.8 ± 1.2 | amount of intact tracer (in vitro stability), mean ± SD ([2]; human plasma, 37° C., 72±2 h): 60.8±1.2% | log D7.4 ± SD (n = 8) [3]: −0.57 ± 0.03 | pancreas retention ([5]; 100 pmol, FIG. 11): high pancreas retention | tumor retention ([5]; 100 pmol, FIGS. 11, 18): high tumor retention | tumor-to-background ratios (tumor-to-blood, tumor-to-muscle) ([5]; FIG. 12): minor tumor-to-background ratios than the reference | IC50 ([6]; IC50 [nM] ± SD (n = 3), ^177Lu-labeled, Table 1C, GRPR affinity): 4.2 ± 0.1 nM | IC50 ([6]; IC50 ± SD (n = 3), Table 3, [D-3-[125I]I-Tyr6]MJ9 (c = 0.2 nM), 2 h, r.t., HBSS + 1% BSA): 4.22 ± 0.14 nM
